ChEMBL document CHEMBL4819020, “Discovery of [1,2,4]triazolo[1,5-a]pyrimidines derivatives as potential anticancer agents” (Eur J Med Chem, 2021)
Calls of active or inactive are those of the source. The calls are words filed in the database; no cut-off is given here.

Experiments:
MGC-803 [1] = experiment: Antiproliferative activity against human MGC-803 cells assessed as cell viability measured at 0.75 to 3 uM by MTT assay; assay type: functional, cell-based; conditions: dose 0.75-3 µM, time 24-72 hrs, TDE = time-dependent effect
MGC-803 [2] = experiment: Induction of apoptosis in human MGC-803 cells assessed as viable cells at 3 uM measured after 48 hrs by Annexin V-FITC/PI staining based flow cytometry method (reference value: 92.3 %); assay type: functional; conditions: read-out: Activity
MGC-803 [3] = experiment: Induction of apoptosis in human MGC-803 cells assessed as early apoptotic cells at 0.75 uM measured after 48 hrs by Annexin V-FITC/PI staining based flow cytometry method (reference value: 0.992 %); assay type: functional
PC-9 = experiment: Antiproliferative activity against human PC-9 cells assessed as inhibition of cell proliferation measured after 72 hrs by MTT assay; assay type: functional, cell-based; conditions: PC-9, 72 h
[4] = Toxicity in mouse assessed as effect on heart at 2 mg/kg, ig measured after 2 weeks by H and E staining based microscopic method; assay type: organism-based; conditions: in vivo, po, 336 h
MGC-803 [5] = experiment: Inhibition of cell migration in human MGC-803 cells measured after 48 hrs by transwell assay; assay type: functional, cell-based; conditions: dose 0.25-1 µM
[6] = Selectivity index, ratio of EC50 for human MGC-803 cells to EC50 for human GES1 cells
MGC-803 [7] = experiment: Induction of cell cycle arrest in human MGC-803 cells assessed as increase in p27 expression at 0.75 to 3 uM measured after 24 hrs by western blot assay; assay type: functional, cell-based; conditions: dose 0.75-3 µM
[8] = Toxicity in mouse assessed as effect on kidney at 2 mg/kg, ig measured after 2 weeks by H and E staining based microscopic method; assay type: organism-based; conditions: in vivo, po, 336 h
[9] = Toxicity in mouse assessed as effect on lung at 2 mg/kg, ig measured after 2 weeks by H and E staining based microscopic method; assay type: organism-based; conditions: in vivo, po, 336 h
MGC-803 [10] = experiment: Antiproliferative activity against human MGC-803 cells assessed as inhibition of colony formation at 0.125 to 0.5 uM measured after 7 days by crystal violet dye based colony formation assay; assay type: functional, cell-based; conditions: dose 0.125-0.5 µM, time 7.0 day
MGC-803 [11] = experiment: Induction of apoptosis in human MGC-803 cells assessed as late apoptotic cells at 0.75 uM measured after 48 hrs by Annexin V-FITC/PI staining based flow cytometry method (reference value: 3.10 %); assay type: functional
MGC-803 [12] = experiment: Induction of apoptosis in human MGC-803 cells assessed as viable cells at 1.5 uM measured after 48 hrs by Annexin V-FITC/PI staining based flow cytometry method (reference value: 92.3 %); assay type: functional; conditions: read-out: Activity
[13] = Toxicity in mouse assessed as mouse survival at 2 mg/kg, ig measured after 2 weeks; assay type: organism-based; conditions: in vivo, po, 336 h
[14] = Toxicity in mouse assessed as effect on liver at 2 mg/kg, ig measured after 2 weeks by H and E staining based microscopic method; assay type: organism-based; conditions: in vivo, po, 336 h
MGC-803 [15] = experiment: Induction of apoptosis in human MGC-803 cells assessed as necrotic cells at 3 uM measured after 48 hrs by Annexin V-FITC/PI staining based flow cytometry method (reference value: 3.60 %); assay type: functional
MGC-803 [16] = experiment: Induction of apoptosis in human MGC-803 cells assessed as late apoptotic cells at 1.5 uM measured after 48 hrs by Annexin V-FITC/PI staining based flow cytometry method (reference value: 3.10 %); assay type: functional
MCF7 = experiment: Antiproliferative activity against human MCF7 cells assessed as inhibition of cell proliferation measured after 72 hrs by MTT assay; assay type: functional, cell-based; conditions: MCF7, 72 h
MGC-803 [17] = experiment: Antiproliferative activity against human MGC-803 cells assessed as inhibition of cell proliferation measured after 72 hrs by MTT assay; assay type: functional, cell-based; conditions: MGC-803, 72 h
GES1 = experiment: Antiproliferative activity against human GES1 cells assessed as inhibition of cell proliferation measured after 72 hrs by MTT assay; assay type: cell-based; conditions: GES1, 72 h
MGC-803 [18] = experiment: Induction of apoptosis in human MGC-803 cells assessed as late apoptotic cells at 3 uM measured after 48 hrs by Annexin V-FITC/PI staining based flow cytometry method (reference value: 3.10 %); assay type: functional
MGC-803 [19] = experiment: Cell cycle arrest in human MGC-803 cells assessed as accumulation of cells in G0/G1 phase at 3 uM measured after 24 hrs by PI staining based flow cytometry assay (reference value: 49.39%); assay type: functional
MGC-803 [20] = experiment: Cell cycle arrest in human MGC-803 cells assessed as accumulation of cells in S phase at 1.5 uM measured after 24 hrs by PI staining based flow cytometry assay (reference value: 18.03%); assay type: functional
MGC-803 [21] = experiment: Induction of apoptosis in human MGC-803 cells assessed as viable cells at 0.75 uM measured after 48 hrs by Annexin V-FITC/PI staining based flow cytometry method (reference value: 92.3 %); assay type: functional; conditions: read-out: Activity
MGC-803 [22] = experiment: Cell cycle arrest in human MGC-803 cells assessed as accumulation of cells in S phase at 0.75 uM measured after 24 hrs by PI staining based flow cytometry assay (reference value: 18.03%); assay type: functional
MGC-803 [23] = experiment: Cell cycle arrest in human MGC-803 cells assessed as accumulation of cells in G2/M phase at 3 uM measured after 24 hrs by PI staining based flow cytometry assay (reference value: 33.35%); assay type: functional
MGC-803 [24] = experiment: Induction of apoptosis in human MGC-803 cells assessed as increase in p53 expression at 0.75 to 3 uM measured after 48 hrs by western blot assay; assay type: functional, cell-based; conditions: dose 0.75-3 µM
MGC-803 [25] = experiment: Cell cycle arrest in human MGC-803 cells assessed as accumulation of cells in G2/M phase at 1.5 uM measured after 24 hrs by PI staining based flow cytometry assay (reference value: 33.35%); assay type: functional
MGC-803 [26] = experiment: Induction of apoptosis in human MGC-803 cells assessed as early apoptotic cells at 3 uM measured after 48 hrs by Annexin V-FITC/PI staining based flow cytometry method (reference value: 0.992 %); assay type: functional
MGC-803 [27] = experiment: Induction of apoptosis in human MGC-803 cells assessed as decrease in Bcl-2 expression at 0.75 to 3 uM measured after 48 hrs by western blot assay; assay type: functional, cell-based; conditions: dose 0.75-3 µM
MGC-803 [28] = experiment: Induction of apoptosis in human MGC-803 cells assessed as necrotic cells at 0.75 uM measured after 48 hrs by Annexin V-FITC/PI staining based flow cytometry method (reference value: 3.60 %); assay type: functional
MGC-803 [29] = experiment: Cell cycle arrest in human MGC-803 cells assessed as accumulation of cells in G0/G1 phase at 0.75 uM measured after 24 hrs by PI staining based flow cytometry assay (reference value: 49.39%); assay type: functional
MGC-803 [30] = experiment: Induction of apoptosis in human MGC-803 cells assessed as necrotic cells at 1.5 uM measured after 48 hrs by Annexin V-FITC/PI staining based flow cytometry method (reference value: 3.60 %); assay type: functional
MGC-803 [31] = experiment: Induction of apoptosis in human MGC-803 cells assessed by nuclear fragmentation at 0.75 to 3 uM measured after 48 hrs by Hoechst 33342 staining based microscopic method; assay type: functional, cell-based; conditions: dose 0.75-3 µM
[32] = Toxicity in mouse assessed as effect on spleen at 2 mg/kg, ig measured after 2 weeks by H and E staining based microscopic method; assay type: organism-based; conditions: in vivo, po, 336 h
MGC-803 [33] = experiment: Antiproliferative activity against human MGC-803 cells assessed as cell viability measured after 24 to 72 hrs by MTT assay; assay type: functional, cell-based; conditions: dose 0.75-3 µM, time 24-72 hrs

## Cc1cc(Nc2ccn(Cc3nc(C)c4ccccc4n3)n2)n2nc(SCc3ccc(Br)cc3)nc2n1
MGC-803 [1]
  Activity: Tde
MGC-803 [2]
  viability at 3 µM: 28%
MGC-803 [3]
  Activity: 2.17%
PC-9
  IC50: 5.45 µM
[4]
  Activity: Non-Toxic
MGC-803 [5]
  Activity: Dose-Dependent Effect
[6]
  Ratio EC50: 38
MGC-803 [7]
  Activity: Dose-Dependent Effect
[8]
  Activity: Non-Toxic
[9]
  Activity: Non-Toxic
MGC-803 [10]
  Activity: Active
MGC-803 [11]
  Activity: 5.23%
MGC-803 [12]
  viability at 1.5 µM: 80.3%
[13]
  Activity: Non-Toxic
[14]
  Activity: Non-Toxic
MGC-803 [15]
  Activity: 24.9%
MGC-803 [16]
  Activity: 10.4%
MCF7
  IC50: 1.43 µM
MGC-803 [17]
  IC50: 0.96 µM
GES1
  IC50: 36.8 µM
MGC-803 [18]
  Activity: 27.7%
MGC-803 [19]
  Activity: 69.99%
MGC-803 [20]
  Activity: 20.75%
MGC-803 [21]
  viability at 0.75 µM: 89.1%
MGC-803 [22]
  Activity: 22.83%
MGC-803 [23]
  Activity: 4.64%
MGC-803 [24]
  Activity: Dose-Dependent Effect
MGC-803 [25]
  Activity: 14.61%
MGC-803 [26]
  Activity: 19.3%
MGC-803 [27]
  Activity: Dose-Dependent Effect
MGC-803 [28]
  Activity: 3.46%
MGC-803 [29]
  Activity: 56.2%
MGC-803 [30]
  Activity: 2.47%
MGC-803 [31]
  Activity: Dose-Dependent Effect
[32]
  Activity: Non-Toxic
MGC-803 [33]
  Activity: Dose-Dependent Effect
